# In a melting point compilation (Tetko et al.):
row,SMILES,melting point [°C]
1,Cc1cc(C(=O)CCl)c(C)n1CC(N)=O,218 to 220
2,ON=C1CCC1,82 to 84
3,O=C1CNC(=O)N1CCBr,134 to 136
4,Cn1ccc(C(=O)N2CCCCC2CC(=O)O)cc1=O (centres undefined),194 to 196
5,O=C(O)CNC(=O)CC12CC3CC(CC(C3)C1)C2,165 to 167
6,O=C1COc2cc(S(=O)(=O)Cl)c(Br)cc2N1,223 to 225
7,O=C(CBr)c1ccc2c(c1)CCC2,57 to 59
8,CCCN(CC)C(=O)c1ccc(C(=O)O)cc1,121 to 123
9,O=C(O)c1csc(S(=O)(=O)N2CCOCC2)c1,226 to 228
10,Cn1c(Cl)cnc1CC(N)=S,142 to 144
11,COc1ccc(-c2nnc(S)n2C(C)C)cc1,218 to 220
12,Cc1cc(C)c(-c2cc(N)[nH]n2)cc1C,145 to 147
13,CC(C)(C)OC(=O)N1CCN2C(=O)C(=O)NCC2C1 (centres undefined),222 to 224
14,NC(=O)Cn1cc(C(=O)O)nn1,198 to 200
15,Cc1cccc(OC(C)C(=O)NN)c1C (centres undefined),140 to 144
16,COC(=O)c1ccn2cncc2c1,93 to 95
17,CC(C)(C)OC(=O)N1CCC(CC(=O)O)(C(=O)O)C1 (centres undefined),180 to 182
18,CS(=O)(=O)N(c1ccc(N)cc1Br)S(C)(=O)=O,179 to 181
19,Cc1ccc2c(C3CCNCC3)c[nH]c2c1,176 to 178
20,NCCCN1CCN(c2ncccn2)CC1,72 to 74

row,SMILES,melting point [°C]
1,CC(Oc1ccc(O)cc1)C(N)=O (centres undefined),138 to 140
2,CCN1CCN(c2ccc(N)cc2)CC1,70 to 72
3,O=C1Nc2cc3c(cc2C1=O)OCCO3,210 to 212
4,CC(C)(C(=O)O)S(=O)(=O)c1ccc(Br)cc1,162 to 164
5,COc1cc(F)c([N+](=O)[O-])cc1OC,139 to 141
6,COc1ccc2c(c1)CCCC(=O)N2,142 to 144
7,CN(C)C(=O)c1ccc(O)cc1,156 to 158
8,CN1CCN(c2ccc(CO)cc2F)CC1,87 to 89
9,O=S1(=O)CCCC(O)C1 (centres undefined),99 to 101
10,Cn1cncc1C#N,48 to 50
11,CC(C)(C)OC(=O)NCCc1nnc2n1CCCC2,158 to 160
12,Cc1cc(C(=O)O)cc(S(N)(=O)=O)c1C,266 to 268
13,O=C(O)C1(c2ccc(F)cc2F)CCOCC1,134 to 136
14,O=Cc1ccc([N+](=O)[O-])cc1F,84 to 86
15,CCOC(=O)c1cc(CC)sc1NC(=O)CCl,74 to 76
16,CN(C)c1ccnc(N)n1,157 to 159
17,O=C(CBr)c1sccc1Br,60 to 62
18,ClCc1cc2c(cc1Br)OCCO2,117 to 119
19,COc1cc(N)ccc1S(=O)(=O)N1CCCC1,145 to 147
20,CC(=O)NCc1ccc(C(=O)C(C)Cl)s1 (centres undefined),79 to 81

row,SMILES,melting point [°C]
1,COC(=O)c1cc(F)c(F)cc1N,79 to 81
2,CC(=O)c1ccc(N2CCCC2)c(F)c1,36 to 38
3,NC(=O)CCCC(=O)O,83 to 85
4,COC(=O)c1cc(Br)cc(N)c1Cl,73 to 75
5,Cc1cccc(S(N)(=O)=O)n1,165 to 167
6,COC(=O)c1cc(Br)c(N)s1,88 to 90
7,O=C1NC2CCCCCCC12 (centres undefined),64 to 66
8,COC(=O)C1CCC(C(=O)O)CC1 (centres undefined),85 to 87
9,CCCCC(NC(=O)NCC)C(=O)O (centres undefined),96 to 98
10,Nc1onc(C2CCCC2)c1-c1ccc2c(c1)OCO2,122 to 124
11,CCCc1cc(O)c2ccccc2n1,168 to 170
12,Cn1c(S)nc2ccsc2c1=O,313 to 315
13,CNS(=O)(=O)c1ccc2c(c1)CCN2,124 to 126
14,CCC(CO)N1CCNCC1 (centres undefined),78 to 80
15,CC1(C2CCNCC2)NC(=O)NC1=O (centres undefined),243 to 245
16,O=C(O)CC1CCS(=O)(=O)C1 (centres undefined),87 to 89
17,Cc1cc(C)c2nc(N)sc2c1,135 to 137
18,O=C(CCC1CCCCC1)Nc1ccc(C(=O)O)c(O)c1,209 to 211
19,NC(=O)CNS(=O)(=O)c1ccc(F)c(C(=O)O)c1,201 to 203
20,c1cc2c(s1)CCNC2C1CC1 (centres undefined),44 to 46

# The next lines start with the values.
row,melting point [°C],SMILES
1,181 to 183,O=C(O)c1ccc(Br)c(S(=O)(=O)Cl)c1
2,138 to 140,N#Cc1ccc(N2C(=O)C=CC2=O)cc1
3,112 to 114,Cc1csc(Sc2ccc(N)cc2Cl)n1
4,138 to 140,CN1CCC(=O)Nc2cc(Cl)ccc21
5,107 to 109,COC(=O)c1ccc(N)cc1Cl
6,190 to 192,COc1cccc(CNc2ccc3[nH]c(=O)[nH]c3c2)c1
7,109 to 111,CCOCCOc1ccc(Br)cc1/C=C/C(=O)O
8,190 to 192,O=C(O)/C=C/S(=O)(=O)c1ccccc1
9,199 to 201,Cc1ccc(-n2cnnn2)cc1NC(=O)OCC(F)(F)F
10,79 to 81,CSCCC(NC(=O)c1ccc(Cl)cc1Cl)C(=O)O (centres undefined)
11,113 to 115,CC(=O)Nc1ccc(N)c(Cl)c1
12,145 to 147,O=C(O)Cn1c(-c2ccccc2)cc2ccccc21
13,201 to 203,O=C(O)C1CC(O)CN1C(=O)Cc1ccccc1F (centres undefined)
14,55 to 57,CC(C)(O)COc1ccc(N)cc1
15,233 to 235,CN1CC(=O)Nc2ccc(Cl)nc21
16,143 to 145,O=C(O)c1cc2ccc(C(F)(F)F)cc2[nH]1
17,82 to 84,Cc1nc(N)sc1Cc1cccc(F)c1
18,148 to 150,Oc1ccc(-c2nc(-c3ccccc3)cs2)cc1
19,82 to 84,Nc1cccc(C(=O)N2CCOCC2)c1
20,146 to 148,Nc1cc(C(=O)O)ccc1Oc1ccccc1
21,124 to 126,NC(=O)COc1ccc(N)cc1

row,melting point [°C],SMILES
1,41 to 43,COC(=O)c1ccc(F)cc1S
2,90 to 92,O=C(C1=CNCCC1)c1ccccc1
3,192 to 194,Cc1ccc(-n2c(S)nc3ccccc32)c(C)c1
4,102 to 104,Cc1ccc(-c2nn(-c3ccccc3)cc2C=O)cc1C
5,93 to 95,CC(c1ccc(F)cc1F)S(N)(=O)=O (centres undefined)
6,111 to 113,O=S(=O)(Cl)c1ccc(Cl)c2ncccc12
7,203 to 205,Cc1cc(N)n(-c2nc3ccccc3[nH]2)n1
8,205 to 207,O=C(O)c1sc2cc(C(F)(F)F)ccc2c1Cl
9,139 to 141,O=C(O)CCc1cn(Cc2ccc(Cl)cc2)c2ccccc12
10,62 to 64,N#CCC(=O)c1ccc(Cl)cc1Cl
11,226 to 228,O=C(O)c1ccc(NS(=O)(=O)c2cccs2)cc1
12,77 to 79,Brc1ncn2ccccc12
13,161 to 163,O=C(O)C1CCCN1C(=O)Nc1ccccc1 (centres undefined)
14,78 to 80,NC(=O)c1cccc(S(=O)(=O)Cl)c1
15,75 to 77,Cc1nc(Cl)cc(-c2ccccn2)n1
16,100 to 102,COc1cc(C=O)ccc1OC(=O)c1ccc(F)cc1
17,129 to 131,NS(=O)(=O)NCc1cccnc1
18,168 to 170,Cn1nnnc1-c1cccc(S(N)(=O)=O)c1
19,172 to 174,Nc1c(I)cccc1C(=O)O
20,107 to 109,Cc1cccc(C2(C(=O)O)CC2)c1
21,144 to 146,O=C(O)CCNC(=O)N1CCc2ccccc2C1

row,melting point [°C],SMILES
1,173 to 175,Nc1cccc(C=CC(=O)O)c1
2,163 to 165,Cc1ccc(C=CC(=O)O)nc1
3,289 to 291,Cc1[nH]c2ccc(Oc3ccccc3)cc2c(=O)c1C
4,39 to 42,C=CS(=O)(=O)Oc1ccccc1
5,152 to 154,O=C(O)CNC(=O)c1ccccc1C(F)(F)F
6,122 to 124,C=CC(=O)Nc1cccc(Br)c1
7,69 to 71,O=Cc1ccc(Oc2ccc(Cl)cc2[N+](=O)[O-])cc1
8,180 to 182,O=[N+]([O-])c1cc(S(=O)(=O)Nc2nc3ccccc3nc2Cl)ccc1Cl
9,175 to 177,O=Cc1cn(-c2ccc(Cl)c(Cl)c2)nn1
10,66 to 68,CCc1ccc(C=CS(=O)(=O)Cl)cc1
11,253 to 255,N#Cc1cccc(-c2nnc(N)o2)c1
12,119 to 121,O=[N+]([O-])c1cc(S(=O)(=O)NCCN2CCOCC2)ccc1Cl
13,183 to 185,COc1ccc(S(=O)(=O)Nc2ccccc2C(=O)O)cc1
14,94 to 96,COCc1ccccc1C(=O)O
15,149 to 151,COc1cc2ncc(Cl)nc2cc1OC
16,146 to 148,CC(Cl)C(=O)Nc1cccc2ccccc12 (centres undefined)
17,105 to 107,NCc1nc(-c2ccc(Cl)cc2)cs1
18,134 to 136,O=C(O)c1cccn1Cc1cccs1
19,144 to 146,Cc1ccc(OCc2nc(N)no2)cc1
20,109 to 111,COc1ccccc1SCC(=O)NN
21,61 to 63,NCC1(Nc2ccccc2)CCCCC1

row,melting point [°C],SMILES
1,158 to 160,CC1=NN(c2ccc(Cl)c(Cl)c2)C(=O)C1
2,116 to 118,O=C(O)c1ccccc1Nc1ccc(SC(F)F)cc1
3,88 to 90,CN(C)CCNS(=O)(=O)c1ccc(Cl)c([N+](=O)[O-])c1
4,155 to 159,O=C(O)CCNS(=O)(=O)c1ccc(Cl)cc1
5,199 to 201,O=C(O)c1cccc(NS(=O)(=O)c2ccccc2)c1
6,89 to 91,Nc1nc(Cc2ccccc2)cs1
7,155 to 157,NC(=NO)c1cccc(CN2CCOCC2)c1
8,154 to 156,Cc1oc(C(=O)O)cc1Cn1cc(Br)cn1
9,135 to 137,CCn1c(S)nc2ccccc21
10,164 to 166,O=C(CCl)n1nc2ccccn2c1=O
11,186 to 188,CC(C)c1ccc(-c2nnn[nH]2)cc1
12,174 to 176,CC(CO)Nc1nc2ccccc2[nH]1 (centres undefined)
13,217 to 219,CCc1cc(=O)[nH]c(-c2ccnc(Cl)c2)n1
14,212 to 214,O=C(O)c1cc2c(s1)-c1ccccc1CC2
15,162 to 164,COc1ccc(-c2nc(CC(=O)O)cs2)cc1OC
16,71 to 73,Clc1cc(SCc2ccccc2)ncn1
17,130 to 132,O=[N+]([O-])c1cc2nc(Cl)ccc2cc1F
18,101 to 103,O=C(O)C1(c2cccc(Cl)c2)CCC1
19,150 to 152,O=C1CCC(Cc2ccc(Cl)cc2)C(=O)N1 (centres undefined)
20,233 to 235,Nn1cnc2c(cnn2-c2ccccc2)c1=O
21,130 to 139,COCc1c(C(=O)O)sc2cccc(F)c12
